Test results reported in patent US20150105252A1, “SUBSTITUTED PYRAZOLES AS HERBICIDES” (E I DU PONT DE NEMOURS AND COMPANY, priority 2013, published 2015).

How the values were obtained:
Conditions in all cases: scale 0 to 100
[1] = test system: pigweed; experiment: Test D postemergence; format: in vivo, Amaranthus retroflexus
Outline: (§1)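 Pre: sown in silt loam, sprayed at once. Post: grown in peat-moss/vermiculite mix, sprayed at 1–4 leaves (2–18 cm). Formulation: non-phytotoxic solvent + surfactant. Read-out: visual 0–100 vs controls, 14–21 d.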

[2] = test system: deadnettle; experiment: Test D preemergence; format: in vivo, Lamium amplexicaule
Outline: as §1

[3] = test system: field poppy; experiment: Test D postemergence; format: in vivo, Papaver rhoeas
Outline: as §1

[4] = test system: barley, spring; experiment: Test D postemergence; format: in vivo, Hordeum vulgare
Outline: as §1

[5] = test system: barley, winter; experiment: Test D postemergence; format: in vivo, Hordeum vulgare
Outline: as §1

[6] = test system: blackgrass; experiment: Test D preemergence; format: in vivo, Alopecurus myosuroides
Outline: as §1

[7] = test system: oat, wild; experiment: Test D postemergence; format: in vivo, Avena fatua
From the text: (§2) Seeds of plant species selected from bluegrass (annual bluegrass, Poa annua), blackgrass (Alopecurus myosuroides), canarygrass (littleseed canarygrass, Phalaris minor), chickweed (common chickweed, Stellaria media), galium (catchweed bedstraw, Galium aparine), bromegrass, downy (downy bromegrass, Bromus tectorum), field poppy (Papaver rhoeas), field violet (Viola arvensis), foxtail, green (green foxtail, Setaria viridis), deadnettle (henbit deadnettle, Lamium amplexicaule), ryegrass, Italian (Italian ryegrass, Lolium multiflorum), kochia (Kochia scoparia), lambsquarters (Chenopodium album), oilseed rape (Brassica napus), pigweed (redroot pigweed, Amaranthus retroflexus), chamomile (scentless chamomile, Matricaria inodora), speedwell (bird's-eye speedwell, Veronica persica), barley, spring (spring barley, Hordeum vulgare), wheat, spring (spring wheat, Triticum aestivum), buckwheat, wild (wild buckwheat, Polygonum convolvulus), mustard, wild (wild mustard, Sinapis arvensis), oat, wild (wild oat, Avena fatua), radish, wild (wild radish, Raphanus raphanistrum), windgrass (Apera spica-venti), Russian thistle (Salsola kali), barley, winter (winter barley, Hordeum vulgare), and wheat, winter (winter wheat, Triticum aestivum) were planted into a silt loam soil and treated preemergence with test chemicals formulated in a non-phytotoxic solvent mixture which included a surfactant.
(§3) At the same time, these species were planted in pots containing Redi-Earth® planting medium (Scotts Company, 14111 Scottslawn Road, Marysville, Ohio 43041) comprising spaghnum peat moss, vermiculite, wetting agent and starter nutrients and treated with postemergence applications of the test chemicals formulated in the same manner. Plants ranged in height from 2 to 18 cm (1- to 4-leaf stage). Treated plants and controls were maintained in a controlled growth environment for 14 to 21 days after which time all species were compared to controls and visually evaluated. Plant response ratings, summarized in Table D, are based on a scale of 0 to 100 where 0 is no effect and 100 is complete control. A dash (-) response means no test result.

[8] = test system: bluegrass; experiment: Test D postemergence; format: in vivo, Poa annua
From the text: as §2, §3

[9] = test system: windgrass; experiment: Test D postemergence; format: in vivo, Apera spica-venti
From the text: as §2, §3

[10] = test system: buckwheat, wild; experiment: Test D preemergence; format: in vivo, Polygonum convolvulus
From the text: as §2, §3

[11] = test system: windgrass; experiment: Test D preemergence; format: in vivo, Apera spica-venti
From the text: as §2, §3

[12] = test system: field violet; experiment: Test D preemergence; format: in vivo, Viola arvensis
Outline: as §1

[13] = test system: deadnettle; experiment: Test D postemergence; format: in vivo, Lamium amplexicaule
Outline: as §1

[14] = test system: mustard, wild; experiment: Test D preemergence; format: in vivo, Sinapis arvensis
From the text: as §2, §3

[15] = test system: galium; experiment: Test D preemergence; format: in vivo, Galium aparine
Outline: as §1

[16] = test system: bromegrass, downy; experiment: Test D preemergence; format: in vivo, Bromus tectorum
Outline: as §1

CCCc1cc(C(=O)NCC(F)(F)F)nn1Cc1ccnc(C(F)(F)F)c1 [Compound 105]
Pigweed plant response rating ([1]; Postemergence, 31 g ai/ha): 85 | Pigweed plant response rating ([1]; Postemergence, 125 g ai/ha): 80 | Pigweed plant response rating ([1]; Postemergence, 250 g ai/ha): 85 | Pigweed plant response rating ([1]; postemergence, 62 g ai/ha): 75 | Plant response rating, Deadnettle ([2]; 31 g ai/ha): 5 | Plant response rating, Deadnettle ([2]; 125 g ai/ha): 20 | Plant response rating, Deadnettle ([2]; 250 g ai/ha): 35 | Field Poppy plant response rating ([3]; Postemergence, 31 g ai/ha): 65 | Field Poppy plant response rating ([3]; Postemergence, 125 g ai/ha): 80 | Field Poppy plant response rating ([3]; Postemergence, 250 g ai/ha): 95 | Field Poppy plant response rating ([3]; postemergence, 62 g ai/ha): 80 | Barley, Spring plant response rating ([4]; Postemergence, 31 g ai/ha): 10 | Barley, Spring plant response rating ([4]; Postemergence, 125 g ai/ha): 30 | Barley, Spring plant response rating ([4]; Postemergence, 250 g ai/ha): 45 | Barley, Spring plant response rating ([4]; postemergence, 62 g ai/ha): 10 | Barley, Winter plant response rating ([5]; Postemergence, 31 g ai/ha): 10 | Barley, Winter plant response rating ([5]; Postemergence, 125 g ai/ha): 20 | Barley, Winter plant response rating ([5]; Postemergence, 250 g ai/ha): 30 | Barley, Winter plant response rating ([5]; postemergence, 62 g ai/ha): 10 | Plant response rating, Blackgrass ([6]; 31 g ai/ha): 25 | Plant response rating, Blackgrass ([6]; 62 g ai/ha): 80 | Plant response rating, Blackgrass ([6]; 125 g ai/ha): 100 | Plant response rating, Blackgrass ([6]; 250 g ai/ha): 100 | Oat, Wild plant response rating ([7]; Postemergence, 31 g ai/ha): 15 | Oat, Wild plant response rating ([7]; Postemergence, 125 g ai/ha): 25 | Oat, Wild plant response rating ([7]; Postemergence, 250 g ai/ha): 50 | Oat, Wild plant response rating ([7]; postemergence, 62 g ai/ha): 20 | Bluegrass plant response rating ([8]; Postemergence, 31 g ai/ha): 15 | Bluegrass plant response rating ([8]; Postemergence, 125 g ai/ha): 40 | Bluegrass plant response rating ([8]; Postemergence, 250 g ai/ha): 70 | Bluegrass plant response rating ([8]; postemergence, 62 g ai/ha): 15 | Windgrass plant response rating ([9]; Postemergence, 31 g ai/ha): 15 | Windgrass plant response rating ([9]; Postemergence, 125 g ai/ha): 40 | Windgrass plant response rating ([9]; Postemergence, 250 g ai/ha): 70 | Windgrass plant response rating ([9]; postemergence, 62 g ai/ha): 25 | Plant response rating, Buckwheat, Wild ([10]; 31 g ai/ha): 85 | Plant response rating, Buckwheat, Wild ([10]; 62 g ai/ha): 90 | Plant response rating, Buckwheat, Wild ([10]; 125 g ai/ha): 95 | Plant response rating, Buckwheat, Wild ([10]; 250 g ai/ha): 100 | Plant response rating, Windgrass ([11]; 31 g ai/ha): 75 | Plant response rating, Windgrass ([11]; 62 g ai/ha): 100 | Plant response rating, Windgrass ([11]; 125 g ai/ha): 100 | Plant response rating, Windgrass ([11]; 250 g ai/ha): 100 | Plant response rating, Field Violet ([12]; 31 g ai/ha): 100 | Plant response rating, Field Violet ([12]; 62 g ai/ha): 100 | Plant response rating, Field Violet ([12]; 125 g ai/ha): 100 | Plant response rating, Field Violet ([12]; 250 g ai/ha): 100 | Deadnettle plant response rating ([13]; Postemergence, 31 g ai/ha): 15 | Deadnettle plant response rating ([13]; Postemergence, 125 g ai/ha): 55 | Deadnettle plant response rating ([13]; Postemergence, 250 g ai/ha): 60 | Deadnettle plant response rating ([13]; postemergence, 62 g ai/ha): 20 | Plant response rating, Mustard, Wild ([14]; 31 g ai/ha): 100 | Plant response rating, Mustard, Wild ([14]; 62 g ai/ha): 100 | Plant response rating, Mustard, Wild ([14]; 125 g ai/ha): 100 | Plant response rating, Mustard, Wild ([14]; 250 g ai/ha): 100 | Plant response rating, Galium ([15]; 31 g ai/ha): 100 | Plant response rating, Galium ([15]; 62 g ai/ha): 100 | Plant response rating, Galium ([15]; 125 g ai/ha): 100 | Plant response rating, Galium ([15]; 250 g ai/ha): 100 | Plant response rating, Bromegrass, Downy ([16]; 31 g ai/ha): 5 | Plant response rating, Bromegrass, Downy ([16]; 62 g ai/ha): 15 | Plant response rating, Bromegrass, Downy ([16]; 125 g ai/ha): 55 | Plant response rating, Bromegrass, Downy ([16]; 250 g ai/ha): 95
